We go through five compounds from PMC7555970, “Design, Synthesis and Biological Evaluation of Biphenylglyoxamide-Based Small Molecular Antimicrobial Peptide Mimics as Antibacterial Agents” (International Journal of Molecular Sciences, 2020).

For one data set, the system named is Gram-negative bacteria. Also noted: method as in doi:10.1002/slct.201700336, PMID 28203673. The settings on record: previously reported ref 43, 44; cited from earlier work.
The test system of data set [1] is S. aureus (SA38). Particulars: cited from earlier work.
Data set [2] relates to E. coli (K12). Particulars: no antibacterial activity at the highest concentration tested (250 μM) ref 43; cited from earlier work.
The test system of data set [3] is P. aeruginosa (PA01). Particulars: no antibacterial activity at the highest concentration tested (250 μM) ref 43; cited from earlier work.
Data set [4] deals with MRC-5 normal human lung fibroblasts. As to the kind of experiment: MTT toxicity assay. In kind it is cell-based. Particulars: Homo sapiens, MRC5, 72 h, 72 h drug incubation, read-out: IC50 against MRC-5 normal human lung fibroblasts. As for the experimental part:
The toxicity of the compounds was measured using an MTT (3-(4,5-dimethylthiazol-2-yl)-2,5-diphenyltetrazolium bromide) (Sigma Aldrich, St Louis, MO, USA) colorimetric assay against normal human lung fibroblasts MRC-5 cells. The cells were cultured in minimal essential medium (MEM; Sigma Aldrich, St Louis, MO, USA) containing 10% foetal bovine serum (FBS). The cells were maintained at 37 °C in 5% CO2 as an adherent monolayer and was passaged upon reaching confluence by standard cell culture techniques. MRC-5 cells were seeded at 5000 cells/well in 96-well plates to ensure full confluence (quiescence) and left overnight to adhere to the plate wells. The adherent cells were treated with 1–500 µM of compounds by dissolving in DMSO and serially diluting with media. The final concentration of DMSO was 0.5% (v/v). After 72 h drug incubation, […] stock MTT solution (5 mg/mL) was added and the cells were incubated for another 3.5–4 h. MTT solution-containing media was carefully aspirated without displacing the purple crystals from the bottom and […] acid-isopropanol was added to all wells and mixed slowly by shaking with an orbital shaker to dissolve the dark blue crystals. The metabolic activity was detected by spectrophotometric analysis by assessing the read absorbance (590/620 nm) on an EnSight plate reader (PerkinElmer, Waltham, MA, USA) and cell viability was expressed as a percentage of untreated control cells. The determination of IC50 values was performed using GraphPad Prism 6 (GraphPad, San Diego, CA, USA). Each experiment was performed in triplicate and was repeated in three independent experiments.

Data set [5] deals with established S. aureus biofilms. In words: Biofilm disruption assay (crystal violet staining), S. aureus. In kind it is cell-based, Staphylococcus aureus. The settings on record: 4× MIC (32 μM), 24 h treatment. As for the experimental part:
(§1) Bacterial cultures (S. aureus and E. coli) were grown in Muller Hinton broth (MHB; Oxoid, Basingstoke, UK) media overnight at 37 °C with shaking at 120 rpm. Cultures were diluted (1:20) in MHB medium and 200 µL aliquots were dispensed to wells in a flat bottom 96-well plate (Costar; Sigma-Aldrich, St Louis, MO, USA). Biofilm was then grown in the 96-well plate at 37 °C overnight. After that, loosely bound cells were washed away with 1x phosphate-buffered saline (PBS) and cultures were then supplemented with different concentrations of test compounds dissolved in DMSO and incubated for a further 24 h with shaking at 120 rpm. Biofilms adhered on the plate substratum were quantified using crystal violet staining as described previously. The experiment was performed in triplicate.

Data set [6] deals with preformed E. coli biofilm. As to the kind of experiment: Biofilm disruption assay (crystal violet staining), E. coli. In kind it is cell-based, Escherichia coli. Particulars: 4× MIC (64 μM), 24 h treatment. As for the experimental part: as §1
A short description of data set [7]: Tethered bilayer lipid membranes (tBLMs) assay, negatively charged membrane. The procedure: (§2) Changes in membrane conduction and capacitance were measured using tethered bilayer lipid membranes (tBLMs) in association with AC electrical impedance spectroscopy techniques. Sparsely tethered tBLMs were prepared using a zwitterionic 1-palmitoyl-2-oleoyl-glycero-3-phosphocholine (POPC) (Avanti Lipids, USA) or a mixture of 30% palmitoyl-oleoyl-phosphatidylglycerol (POPG) (Avanti Lipids, USA) lipids with 70% POPC in order to create a negatively charged tBLM [66, 67]. To do this, gold-patterned polycarbonate slides were coated with tethered benzyl-disulfide (tetra-ethyleneglycol) n = 2 C20-phytanyl tethers:benzyl-disulfide-tetra-ethyleneglycol-OH spacers in the ratio of 1:10 (SDx Tethered Membranes Pty Ltd., Australia). A 3 mM solution of a mobile lipid phase POPC, or a 3 mM solution of mobile phase POPC/POPG (70:30), (Avanti Lipids, USA) in 100% ethanol was then incubated with the tethering chemistries. Lipids were left to incubate with the tethering chemistries for 2 min before being washed with 3 × […] of phosphate-buffered saline (PBS). Prior to the addition of the compounds, membrane stability was confirmed by 5 × 100 µL washes of the PBS vehicle. AC electrical impedance spectrometry (EIS) was then used to monitor any changes in membrane impedances as a result of adding the test compounds in increasing concentrations.
(§3) For EIS measures, a 50 mV peak-to-peak AC excitation from 0.1 to 2000 Hz with four steps per decade were recorded using a TethaPod™ operated with TethaQuick™ software (SDx Tethered Membranes Pty Ltd., Australia). The data were fitted to an equivalent circuit consisting of a Constant Phase Element (CPE), to represent the imperfect capacitance of the gold tethering electrode, in series with a Resistor/Capacitor network to represent the lipid bilayer membrane. Fitting of the phase and impedance data to the equivalent circuit was completed with a proprietary adaptation of a Lev Mar fitting routine. To account for variations in basal membrane conditions, data are normalised to a baseline conduction and capacitance values directly before the addition of each compound.

In data set [8] the test system is cytoplasmic membrane of S. aureus. In words: Cytoplasmic membrane permeability (diSC3-5 dye release) assay. In kind it is cell-based, Staphylococcus aureus. The settings on record: 1× and 2× MIC. The procedure:
Bacterial cytoplasmic membrane permeability was determined using membrane potential-sensitive dye diSC3–5 (3,3′-dipropylthiadicarbocyanine iodide), which penetrates inside bacterial cells depending on the membrane potential gradient of the cytoplasmic membrane. The procedure of this assay follows the method previously described by Wu et al. with slight modifications. Bacteria were grown in MHB to mid-log phase by incubating with shaking at 37 °C for […]. Following incubation, bacteria were washed with 5 mM HEPES containing 20 mM glucose at pH 7.2 and resuspended in the same buffer to an OD600 0.05–0.06 (yielding a final concentration of 10^7 CFU/mL). The dye diSC3–5 was added at 4 μM to the bacterial suspension. The suspensions were incubated at room temperature for 1 h in darkness for maximum dye take-up by the bacterial cells. 100 mM KCl was then added to balance the K^+ outside and inside the bacterial cell. 100 μL of bacterial suspension was added in a 96-well microtiter plate and with equal volume of antimicrobial compounds. DMSO (10%) was set as a positive control while dye and only bacterial cells were set as negative control. Fluorescence due to release of dye was measured with a luminescence spectrophotometer at 3 min intervals at an excitation wavelength of 621 nm and an emission wavelength of 670 nm.

Data set [9] can be described thus: Tethered bilayer lipid membranes (tBLMs) assay, zwitterionic membrane. The procedure: as §2, §3
Data set [10] concerns E. coli (K12). As to the kind of experiment: Minimum inhibitory concentration (MIC) assay against E. coli. In kind it is cell-based. The settings on record: Escherichia coli. As for the experimental part: (§4) The antimicrobial activity of the compounds was evaluated by MIC assay using the procedure described by Clinical and Laboratory Standards Institute (CLSI). A single colony of bacteria was cultured overnight in trypticase soy broth (TSB; Oxoid, Basingstoke, UK) at 37 °C with shaking. The resulting bacterial culture was collected by centrifugation and resuspended in TSB twice. The optical density (OD) of the resulting culture was adjusted to OD660 = 0.1 in TSB (which is equivalent to 10^8 colony forming unit (CFU)/mL bacteria). It was further diluted to 10^6 CFU/mL in TSB. 100 µL of the bacterial solution was then added to wells of a 96-well plate (Costar; Sigma-Aldrich, St Louis, MO, USA) containing 100 µL serially diluted peptide mimic, with final concentration ranging from 1 to 250 µM. Wells with bacteria but no compound were used as negative control while wells with only media were set as blank. The plates were then wrapped with parafilm to prevent evaporation and incubated with shaking at 120 rpm at 37 °C for 18–24 h, and the data were recorded by measuring the OD value at 660 nm using a FLUOstar Omega (BMG Labtech, Mornington, Victoria, Australia) microplate reader. […] Each experiment was performed in triplicate and was repeated in three independent experiments.

For another data set, the system named is S. aureus. In words: Time-kill kinetic / cell viability count assay. Type of data set: cell-based, Staphylococcus aureus. The procedure: The number of viable cells was confirmed by serially diluting aliquots of bacteria in D/E neutralizing broth (Remel, Lenexa, KS, USA) and plating onto Tryptic Soy Agar (Oxoid, Basingstoke, UK) containing phosphatidylcholine (0.7 g/L) and Tween 80 (5 mL/L). The plates were incubated at 37 °C overnight and numbers of live bacteria were enumerated and expressed as CFU/mL. The experiment was performed in triplicate.

Data set [11] relates to S. aureus (SA38). As to the kind of experiment: Minimum inhibitory concentration (MIC) assay against S. aureus. The settings on record: Staphylococcus aureus. In kind it is cell-based, Staphylococcus aureus. As for the experimental part: as §4
Data set [12] relates to P. aeruginosa (PA01). As to the kind of experiment: Minimum inhibitory concentration (MIC) assay against P. aeruginosa. The settings on record: Pseudomonas aeruginosa. Type of data set: cell-based. As for the experimental part:
as §4

The test system of data set [13] is established S. aureus biofilms. Also noted: method as in PMID 27405275. Particulars: 4× its MIC (32 μM) ref 52; cited from earlier work.

In brackets after ≈: the same amount, converted by molar mass. Where two headings read alike, the source gives them in different places.

Take `CCCCCCCCS(=O)(=O)Nc1ccc(Br)cc1C(=O)C(=O)NCCC[N+](C)(C)C` [Compound 4b]: the “antibacterial activity against Gram-negative bacteria” value with Gram-negative bacteria was “no antibacterial activity”. Moreover, in the data set on S. aureus (SA38) [1] (previously synthesised N-sulfonylphenylglyoxamide iodide salts ref 43), the “MIC against S. aureus” value was 63 µM. Further, the “MIC against E. coli” value in the data set with E. coli (K12) [2] was more than 250 µM. Also, in the data set with P. aeruginosa (PA01) [3], the “MIC against P. aeruginosa” value was more than 250 µM.

Regarding `N=C(N)NCCCNC(=O)C(=O)c1cc(Br)ccc1NC(=O)c1ccc2ccccc2c1` [Compound 5], in the data set on Gram-negative bacteria, the “antibacterial activity against Gram-negative bacteria” value is “no antibacterial activity”. The “MIC against S. aureus” value in the data set on S. aureus (SA38) [1] (previously reported ref 44) was 12 µM (≈ 5.96 µg/mL).

Regarding `CCCCCCCCS(=O)(=O)Nc1ccc(-c2ccc(Cl)cc2)cc1C(=O)C(=O)NCCC[N+](C)(C)C.[I-]` [Compound 15c, 3-(2-(4’-Chloro-4-(octylsulfonamido)-[1,1’-biphenyl]-3-yl)-2-oxoacetamido)-N,N,N-trimethylpropan-1-aminium iodide], the IC50 in [4] turned out to be 95.8 µM. Besides, the “disruption of preformed S. aureus biofilms” value in data set [5] came out at 35%. The “disruption of preformed E. coli biofilm” value in data set [6] is on record as “insignificant amount”. The “changes in membrane conductance” value in data set [7] (30% POPG membranes, concentrations <1 μM) was “notably absent”. For the same compound, the “changes of membrane conduction” value in data set [7] (negatively charged membranes, higher concentrations (1–100 μM), compared to zwitterionic) is “lower”; in [9] (zwitterionic membrane, higher concentrations (1–100 μM)), “more pronounced”. Further, the membrane capacitance result in data set [7] (negatively charged tBLMs, saturating concentrations) is given as “large increase”; in data set [9] (zwitterionic tBLMs, saturating concentrations) it was “large increase”. In addition, the “increase in diSC3-5 fluorescence intensity (cytoplasmic membrane disruption)” value in [8] is given as “largest increase in fluorescence intensity”. For the same compound, in data set [9] (zwitterionic POPC tBLMs, concentrations as low as 100 nM), the “shift in membrane conductance” value is reported as 2.5 ×. The minimum inhibitory concentration (MIC) stood at 16 µM against E. coli (K12) [10], 8 µM in the data set with S. aureus (SA38) [11] and 63 µM in the data set on P. aeruginosa (PA01) [12]. In addition, the “reduction in bacterial numbers” value in the data set on S. aureus (1× MIC) amounted to 1 log; in the data set with S. aureus (2× MIC), 2 log.

`CN(C)CCCNC(=O)C(=O)c1cc(-c2ccccc2)ccc1NC(=O)c1ccc2ccccc2c1` [Compound 25, N-(3-(2-((3-(Dimethylamino)propyl)amino)-2-oxoacetyl)-[1,1’-biphenyl]-4-yl)-2-naphthamide]: the melting point lay within 151.6 to 151.8 °C. In the data set on S. aureus (SA38) [11], this compound yielded a minimum inhibitory concentration (MIC) of more than 250 µM.

“LL-37: a natural antimicrobial peptide that is being tested in phase II clinical trials (LLGDFFRKSKEKIGKEFKRIVQRIKDFLRNLVPRTES; Antibacterial peptide LL-37; UniProt P49913 134-170, looked up)”: the “disruption of mature S. aureus biofilms” value in data set [13] is “approximately 40%”.
